Experimental data as given in ChEMBL document CHEMBL1201862, “PubChem BioAssay data set” (2004).
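Results reflect a 48-hour exposure of cells in 96-well plates to compound at five concentrations. GI50 is the concentration that inhibits growth by half.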 Calls of active or inactive are those of the source. Cut-off read from the data, not from the text of the source: active = GI50 up to about 1.1 µM and inactive = higher.

Assays:
Assay in all cases: NCI anticancer screen, dose series, 48 h
SN12C = tested on: SN12C
K562 = tested on: K562
A498 = tested on: A498
OVCAR-4 = tested on: OVCAR-4
SW-620 = tested on: SW-620
IGROV-1 = tested on: IGROV-1
LOX IMVI = tested on: LOX IMVI
Hs-578T = tested on: Hs-578T
CCRF-CEM = tested on: CCRF-CEM
TK-10 = tested on: TK-10
SF-539 = tested on: SF-539
OVCAR-8 = tested on: OVCAR-8
MCF7 = tested on: MCF7
NCI-H23 = tested on: NCI-H23
HCT-116 = tested on: HCT-116
NCI-H460 = tested on: NCI-H460
DU-145 = tested on: DU-145
RXF 393 = tested on: RXF 393
HT-29 = tested on: HT-29
SF-268 = tested on: SF-268
SK-MEL-28 = tested on: SK-MEL-28
MOLT-4 = tested on: MOLT-4
ACHN = tested on: ACHN
MDA-MB-435 = tested on: MDA-MB-435
SF-295 = tested on: SF-295
NCI-H522 = tested on: NCI-H522
UO-31 = tested on: UO-31
SK-OV-3 = tested on: SK-OV-3
UACC-257 = tested on: UACC-257
HCC 2998 = tested on: HCC 2998
OVCAR-3 = tested on: OVCAR-3
RPMI-8226 = tested on: RPMI-8226
SK-MEL-2 = tested on: SK-MEL-2
HL-60 = tested on: HL-60
KM12 = tested on: KM12
OVCAR-5 = tested on: OVCAR-5
MDA-MB-231 = tested on: MDA-MB-231
SNB-75 = tested on: SNB-75
A549 = tested on: A549
UACC-62 = tested on: UACC-62
SR = tested on: SR
U-251 = tested on: U-251
HCT-15 = tested on: HCT-15
HOP-62 = tested on: HOP-62
BT-549 = tested on: BT-549
HOP-92 = tested on: HOP-92
COLO 205 = tested on: COLO 205
CAKI-1 = tested on: CAKI-1
T47D = tested on: T47D
786-0 = tested on: 786-0
MDA-N = tested on: MDA-N
NCI-H226 = tested on: NCI-H226
Malme-3M = tested on: Malme-3M
PC-3 = tested on: PC-3
SNB-19 = tested on: SNB-19
SK-MEL-5 = tested on: SK-MEL-5
NCI/ADR-RES = tested on: NCI/ADR-RES
M14 = tested on: M14
EKVX = tested on: EKVX

**Q.** Which results are given for `CC(C)Oc1c(N(Cc2ccccc2)c2ccccc2C2SCCCS2)c(=O)c1=O`?
**A.** GI50 (SN12C): 6.17 µM (inactive); GI50 (K562): 4.05 µM (inactive); GI50 (A498): 6.9 µM (inactive); GI50 (OVCAR-4): 9.04 µM (inactive); GI50 (SW-620): 2.71 µM (inactive); GI50 (IGROV-1): 3.32 µM (inactive); GI50 (LOX IMVI): 5.56 µM (inactive); GI50 (Hs-578T): 3.44 µM (inactive); GI50 (CCRF-CEM): 5.87 µM (inactive); GI50 (TK-10): 8.63 µM (inactive); GI50 (SF-539): 2.76 µM (inactive); GI50 (OVCAR-8): 3.61 µM (inactive); GI50 (MCF7): 4.16 µM (inactive); GI50 (NCI-H23): 3.97 µM (inactive); GI50 (HCT-116): 4.05 µM (inactive); GI50 (NCI-H460): 3.69 µM (inactive); GI50 (DU-145): 4.18 µM (inactive); GI50 (RXF 393): 4.88 µM (inactive); GI50 (HT-29): 2.52 µM (inactive); GI50 (SF-268): 5.96 µM (inactive); GI50 (SK-MEL-28): 11.2 µM (inactive); GI50 (MOLT-4): 3.63 µM (inactive); GI50 (ACHN): 5.81 µM (inactive); GI50 (MDA-MB-435): 2.74 µM (inactive); GI50 (SF-295): 2.2 µM (inactive); GI50 (NCI-H522): 1.88 µM (inactive); GI50 (UO-31): 6.67 µM (inactive); GI50 (SK-OV-3): 3.39 µM (inactive); GI50 (UACC-257): 6.9 µM (inactive); GI50 (HCC 2998): 3.5 µM (inactive); GI50 (OVCAR-3): 2.33 µM (inactive); GI50 (RPMI-8226): 4.24 µM (inactive); GI50 (SK-MEL-2): 3.32 µM (inactive); GI50 (HL-60): 3.98 µM (inactive); GI50 (KM12): 3.21 µM (inactive); GI50 (OVCAR-5): 5.97 µM (inactive); GI50 (MDA-MB-231): 5.08 µM (inactive); GI50 (SNB-75): 2.51 µM (inactive); GI50 (A549): 5.36 µM (inactive); GI50 (UACC-62): 4.89 µM (inactive); GI50 (SR): 2.79 µM (inactive); GI50 (U-251): 4.4 µM (inactive); GI50 (HCT-15): 3.71 µM; GI50 (HOP-62): 3.96 µM (inactive); GI50 (BT-549): 6.38 µM (inactive); GI50 (HOP-92): 6.81 µM (inactive); GI50 (COLO 205): 3.07 µM (inactive); GI50 (CAKI-1): 5.79 µM (inactive); GI50 (T47D): 5.14 µM (inactive); GI50 (786-0): 4.41 µM (inactive); GI50 (MDA-N): 3.1 µM (inactive); GI50 (NCI-H226): 6.05 µM (inactive); GI50 (Malme-3M): 2.9 µM (inactive); GI50 (PC-3): 3.29 µM (inactive); GI50 (SNB-19): 3.9 µM (inactive); GI50 (SK-MEL-5): 4.32 µM (inactive); GI50 (NCI/ADR-RES): 1.75 µM (inactive); GI50 (M14): 3.65 µM (inactive); GI50 (EKVX): 4.51 µM (inactive)

**Q.** Which GI50 (SN12C) does the source give for `COC(=O)[C@H](Cc1ccccc1)NC(=O)c1ccc(CNC(=O)/C=C/c2csc(-c3ccccc3)n2)cc1` here?
**A.** Its GI50 is 8.91 µM (inactive).

**Q.** And the GI50 (K562)?
**A.** Its GI50 is 1.93 µM (inactive).

**Q.** And the GI50 (A498)?
**A.** Its GI50 is 16.1 µM (inactive).

**Q.** What about the GI50 (OVCAR-4) of the same molecule?
**A.** The GI50 was 24 µM (inactive).

**Q.** And the GI50 (SW-620)?
**A.** The GI50 was 7.33 µM (inactive).

**Q.** And the GI50 (IGROV-1)?
**A.** The GI50 was 3.46 µM (inactive).

**Q.** And the GI50 (LOX IMVI)?
**A.** Its GI50 is 4.91 µM (inactive).

**Q.** And the GI50 (Hs-578T)?
**A.** The GI50 was 3.21 µM (inactive).

**Q.** And the GI50 (CCRF-CEM)?
**A.** Its GI50 is 3.89 µM (inactive).

**Q.** What about the GI50 (TK-10) of the same molecule?
**A.** The GI50 was 19.3 µM (inactive).

**Q.** And the GI50 (SF-539)?
**A.** Its GI50 is 2.04 µM (inactive).

**Q.** What about the GI50 (OVCAR-8) of the same molecule?
**A.** Its GI50 is 11.1 µM (inactive).

**Q.** What about the GI50 (MCF7) of the same molecule?
**A.** The GI50 was 4.5 µM (inactive).

**Q.** And the GI50 (NCI-H23)?
**A.** Its GI50 is 13.8 µM (inactive).

**Q.** What about the GI50 (HCT-116) of the same molecule?
**A.** Its GI50 is 5.04 µM (inactive).

**Q.** And the GI50 (NCI-H460)?
**A.** The GI50 was 11.8 µM (inactive).

**Q.** What about the GI50 (DU-145) of the same molecule?
**A.** Its GI50 is 7.03 µM (inactive).

**Q.** And the GI50 (RXF 393)?
**A.** The GI50 was 8.02 µM (inactive).

**Q.** And the GI50 (HT-29)?
**A.** Its GI50 is 7.38 µM (inactive).

**Q.** What about the GI50 (SF-268) of the same molecule?
**A.** Its GI50 is 7.6 µM (inactive).

**Q.** And the GI50 (SK-MEL-28)?
**A.** Its GI50 is 3.18 µM (inactive).

**Q.** What about the GI50 (MOLT-4) of the same molecule?
**A.** Its GI50 is 1.75 µM (inactive).

**Q.** And the GI50 (ACHN)?
**A.** Its GI50 is 8.28 µM (inactive).

**Q.** And the GI50 (MDA-MB-435)?
**A.** Its GI50 is 2.83 µM (inactive).

**Q.** And the GI50 (SF-295)?
**A.** The GI50 was 7.28 µM (inactive).

**Q.** And the GI50 (NCI-H522)?
**A.** Its GI50 is 3.24 µM (inactive).

**Q.** And the GI50 (UO-31)?
**A.** Its GI50 is 8.2 µM (inactive).

**Q.** What about the GI50 (SK-OV-3) of the same molecule?
**A.** Its GI50 is 23.7 µM (inactive).

**Q.** What about the GI50 (UACC-257) of the same molecule?
**A.** Its GI50 is 1.93 µM (inactive).

**Q.** And the GI50 (HCC 2998)?
**A.** The GI50 was 3.91 µM (inactive).

**Q.** What about the GI50 (OVCAR-3) of the same molecule?
**A.** Its GI50 is 5.33 µM (inactive).

**Q.** And the GI50 (RPMI-8226)?
**A.** Its GI50 is 7.74 µM (inactive).

**Q.** And the GI50 (SK-MEL-2)?
**A.** The GI50 was 2.81 µM (inactive).

**Q.** And the GI50 (HL-60)?
**A.** The GI50 was 0.275 µM (active).

**Q.** And the GI50 (KM12)?
**A.** The GI50 was 7.87 µM (inactive).

**Q.** And the GI50 (OVCAR-5)?
**A.** Its GI50 is 38.5 µM (inactive).

**Q.** And the GI50 (MDA-MB-231)?
**A.** Its GI50 is 10.9 µM (inactive).

**Q.** And the GI50 (SNB-75)?
**A.** Its GI50 is 11 µM (inactive).

**Q.** And the GI50 (A549)?
**A.** Its GI50 is 16.1 µM (inactive).

**Q.** What about the GI50 (UACC-62) of the same molecule?
**A.** Its GI50 is 14.6 µM (inactive).

**Q.** What about the GI50 (SR) of the same molecule?
**A.** Its GI50 is 1.11 µM (active).

**Q.** What about the GI50 (U-251) of the same molecule?
**A.** Its GI50 is 8.11 µM (inactive).

**Q.** And the GI50 (HCT-15)?
**A.** Its GI50 is 7.35 µM.

**Q.** What about the GI50 (HOP-62) of the same molecule?
**A.** The GI50 was 15.3 µM (inactive).

**Q.** What about the GI50 (BT-549) of the same molecule?
**A.** Its GI50 is 29.9 µM (inactive).

**Q.** What about the GI50 (HOP-92) of the same molecule?
**A.** The GI50 was 3.88 µM (inactive).

**Q.** And the GI50 (COLO 205)?
**A.** Its GI50 is 7.13 µM (inactive).

**Q.** And the GI50 (CAKI-1)?
**A.** The GI50 was 7.82 µM (inactive).

**Q.** And the GI50 (T47D)?
**A.** The GI50 was 2.72 µM (inactive).

**Q.** And the GI50 (786-0)?
**A.** The GI50 was 4.88 µM (inactive).

**Q.** What about the GI50 (MDA-N) of the same molecule?
**A.** The GI50 was 4.45 µM (inactive).

**Q.** And the GI50 (NCI-H226)?
**A.** The GI50 was 46 µM (inactive).

**Q.** What about the GI50 (Malme-3M) of the same molecule?
**A.** The GI50 was 3.24 µM (inactive).

**Q.** What about the GI50 (PC-3) of the same molecule?
**A.** Its GI50 is 6.87 µM (inactive).

**Q.** What about the GI50 (SNB-19) of the same molecule?
**A.** Its GI50 is 11.8 µM (inactive).

**Q.** What about the GI50 (SK-MEL-5) of the same molecule?
**A.** The GI50 was 4.22 µM (inactive).

**Q.** And the GI50 (NCI/ADR-RES)?
**A.** The GI50 was 21.2 µM (inactive).

**Q.** And the GI50 (M14)?
**A.** Its GI50 is 1.84 µM (inactive).

**Q.** What about the GI50 (EKVX) of the same molecule?
**A.** Its GI50 is 15.2 µM (inactive).
